According to patent US7994209B2, “3-phenoxymethylpyrrolidine compounds” (Theravance, Inc., priority 2009, dated 2011):

Tests used:
hNET = hNET (Homo sapiens, UniProt P23975); test: hNET membrane radioligand binding assay (3H-nisoxetine), Assay 1
hSERT = hSERT (Homo sapiens, UniProt P31645); test: hSERT membrane radioligand binding assay (3H-citalopram), Assay 1; conditions: SERT pKi, hSERT HEK-293 membranes, 1.0 nM 3H-citalopram; values given as lower bounds
Sequence of hSERT (P31645 whole entry): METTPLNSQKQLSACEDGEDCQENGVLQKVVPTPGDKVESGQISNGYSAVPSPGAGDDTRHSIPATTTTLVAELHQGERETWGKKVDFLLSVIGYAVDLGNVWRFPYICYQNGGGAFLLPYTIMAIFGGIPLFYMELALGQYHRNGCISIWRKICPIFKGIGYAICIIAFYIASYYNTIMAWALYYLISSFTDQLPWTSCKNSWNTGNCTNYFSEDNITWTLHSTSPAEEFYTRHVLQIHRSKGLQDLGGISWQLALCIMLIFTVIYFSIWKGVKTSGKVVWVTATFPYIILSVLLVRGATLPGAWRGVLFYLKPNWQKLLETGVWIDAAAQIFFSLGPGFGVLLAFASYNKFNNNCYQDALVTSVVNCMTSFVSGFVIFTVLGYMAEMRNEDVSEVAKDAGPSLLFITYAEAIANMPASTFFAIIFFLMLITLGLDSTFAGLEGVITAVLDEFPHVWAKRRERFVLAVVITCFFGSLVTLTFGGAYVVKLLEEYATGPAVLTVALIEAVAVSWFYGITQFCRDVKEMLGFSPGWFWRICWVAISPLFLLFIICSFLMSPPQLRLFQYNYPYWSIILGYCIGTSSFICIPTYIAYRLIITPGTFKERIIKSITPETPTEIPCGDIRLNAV
Method: Membrane radioligand binding assays were used to measure inhibition of labeled ligand (^3H-citalopram or ^3H-nisoxetine or ^3H-WIN35428) binding to membranes prepared from cells expressing the respective human recombinant transporter (hSERT or hNET or hDAT) in order to determine the pKi values of test compounds at the transporters.
Recombinant human embryonic kidney (HEK-293) derived cell lines stably transfected with hSERT or hNET, respectively, were grown in DMEM medium supplemented with 10% dialyzed FBS (for hSERT) or FBS (for hNET), 100 μg/mL penicillin, 100 μg/mL streptomycin, 2 mM L-glutamine and 250 μg/mL of the aminoglycoside antibiotic G418, in a 5% CO2 humidified incubator at 37° C. When cultures reached 80% confluence, the cells were washed thoroughly in PBS (without Ca^2+ and Mg^2+) and lifted with 5 mM EDTA in PBS. Cells were pelleted by centrifugation, resuspended in lysis buffer (10 mM Tris-HCl, pH7.5 containing 1 mM EDTA), homogenized, pelleted by centrifugation, then resuspended in 50 mM Tris-HCl, pH 7.5 and 10% sucrose at 4° C. Protein concentration of the membrane suspension was determined using a Bio-Rad Bradford Protein Assay kit. Membranes were snap frozen and stored at −80° C.
Binding assays were performed in a 96-well assay plate in a total volume of 200 μl assay buffer (50 mM Tris-HCl, 120 mM NaCl, 5 mM KCl, pH 7.4) with 0.5, 1, and 3 μg membrane protein, for SERT, NET and DAT, respectively.
Stock solutions (10 mM in DMSO) of test compound were prepared and serial dilutions made using Dilution Buffer (50 mM Tris-HCl, 120 mM NaCl, 5 mM KCl, pH 7.4, 0.1% BSA, 400 μM ascorbic acid).
Following a 60 minute incubation at 22° C. (or a period sufficient to reach equilibrium), the membranes were harvested by rapid filtration over a 96-well UniFilter GF/B plate, pretreated with 0.3% polyethyleneimine, and washed 6 times with 300 μl wash buffer (50 mM Tris-HCl, 0.9% NaCl, pH 7.5 at 4° C.). Plates were dried overnight at room temperature, approximately 45 μl of MicroScint™-20 (Perkin Elmer) added and bound radioactivity quantitated via liquid scintillation spectroscopy. Inhibition curves and saturation isotherms were analyzed using GraphPad Prism Software package (GraphPad Software, Inc., San Diego, Calif.). IC50 values were generated from concentration response curves using the Sigmoidal Dose Response (variable slope) algorithm in Prism GraphPad.

Sequence of hNET (P23975 whole entry): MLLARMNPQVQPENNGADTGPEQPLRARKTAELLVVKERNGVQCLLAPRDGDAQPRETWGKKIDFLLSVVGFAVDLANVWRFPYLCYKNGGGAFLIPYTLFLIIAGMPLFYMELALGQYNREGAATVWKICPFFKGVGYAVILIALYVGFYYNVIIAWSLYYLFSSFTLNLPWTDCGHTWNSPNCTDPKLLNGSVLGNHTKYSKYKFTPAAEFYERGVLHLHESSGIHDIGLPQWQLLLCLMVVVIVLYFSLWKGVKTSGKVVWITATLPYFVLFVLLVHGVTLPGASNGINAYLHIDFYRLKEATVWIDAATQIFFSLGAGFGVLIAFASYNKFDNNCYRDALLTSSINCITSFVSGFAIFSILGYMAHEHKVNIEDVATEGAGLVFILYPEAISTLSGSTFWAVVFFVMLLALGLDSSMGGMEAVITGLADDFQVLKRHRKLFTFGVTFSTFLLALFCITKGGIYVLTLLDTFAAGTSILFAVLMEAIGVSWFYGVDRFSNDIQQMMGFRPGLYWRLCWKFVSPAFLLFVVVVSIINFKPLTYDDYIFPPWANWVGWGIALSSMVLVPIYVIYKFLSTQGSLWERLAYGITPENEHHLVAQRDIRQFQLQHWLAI

SMILES | Ki (hNET) | Ki (hSERT)
CCC[C@@H](Oc1ccc(Cl)cc1C)[C@H]1CCNC1 [Example 4-60, (S)-3-[(R)-1-(4-Chloro-2-methylphenoxy)butyl]pyrrolidine] | ≤ 100 nM | ≤ 10 nM
CCC[C@H](Oc1ccc(Cl)cc1C(F)(F)F)[C@H]1CCNC1 [Example 4-64, (S)-3-[(S)-1-(4-Chloro-2-trifluoromethylphenoxy)butyl]pyrrolidine] | ≤ 10 nM | ≤ 10 nM
CCC[C@@H](Oc1ccc(Cl)cc1C(F)(F)F)[C@H]1CCNC1 [Example 4-65, (S)-3-[(R)-1-(4-Chloro-2-trifluoromethylphenoxy)butyl]pyrrolidine] | ≤ 100 nM | ≤ 100 nM
CCC[C@H](Oc1ccc(Cl)cc1C(F)(F)F)[C@@H]1CCNC1 [Example 4-66, (R)-3-[(S)-1-(4-Chloro-2-trifluoromethylphenoxy)butyl]pyrrolidine] | ≤ 100 nM | ≤ 10 nM
CCC[C@@H](Oc1ccc(Cl)cc1C(F)(F)F)[C@@H]1CCNC1 [Example 4-67, (R)-3-[(R)-1-(4-Chloro-2-trifluoromethylphenoxy)butyl]pyrrolidine] | ≤ 100 nM | ≤ 10 nM
CCC[C@H](Oc1cccc(Cl)c1C(F)(F)F)[C@H]1CCNC1 [Example 4-68, (S)-3-[(S)-1-(3-Chloro-2-trifluoromethylphenoxy)butyl]pyrrolidine] | ≤ 10 nM | ≤ 10 nM
CCC[C@@H](Oc1cccc(Cl)c1C(F)(F)F)[C@H]1CCNC1 [Example 4-69, (S)-3-[(R)-1-(3-Chloro-2-trifluoromethylphenoxy)butyl]pyrrolidine] | ≤ 100 nM | ≤ 10 nM
CCC[C@H](Oc1cccc(Cl)c1C(F)(F)F)[C@@H]1CCNC1 [Example 4-70, (R)-3-[(S)-1-(3-Chloro-2-trifluoromethylphenoxy)butyl]pyrrolidine] | ≤ 100 nM | ≤ 10 nM
CC(C)[C@H](Oc1ccccc1F)[C@H]1CCNC1 [Example 6-1, (S)-3-[(S)-1-(2-Fluorophenoxy)-2-methylpropyl]pyrrolidine] | ≤ 10 nM | ≤ 100 nM
CC(C)C(Oc1ccccc1F)C1CCNC1 (stereo not drawn) [Example 6-2, 3-[1-(2-Fluorophenoxy)-2-methylpropyl]pyrrolidine] | ≤ 100 nM | ≤ 100 nM
CC(C)[C@@H](Oc1ccc(Cl)cc1Cl)[C@H]1CCNC1 [Example 6-22, (S)-3-[(R)-1-(2,4-Dichlorophenoxy)-2-methylpropyl]pyrrolidine] | ≤ 100 nM | ≤ 10 nM
CC(C)C(Oc1c(Cl)cccc1Cl)C1CCNC1 (stereo not drawn) [Example 6-27, 3-[1-(2,6-Dichlorophenoxy)-2-methylpropyl]pyrrolidine] | ≤ 10 nM | ≤ 100 nM
CC(C)[C@@H](Oc1c(Cl)cccc1Cl)[C@H]1CCNC1 [Example 6-29, (S)-3-[(R)-1-(2,6-Dichlorophenoxy)-2-methylpropyl]pyrrolidine] | ≤ 100 nM | ≤ 100 nM
Cc1cc(Cl)ccc1O[C@H](C(C)C)[C@H]1CCNC1 [Example 6-44, (S)-3-[(R)-1-(4-Chloro-2-methylphenoxy)-2-methylpropyl]pyrrolidine] | ≤ 100 nM | ≤ 10 nM
CC(C)[C@@H](Oc1ccc(Cl)cc1C(F)(F)F)[C@H]1CCNC1 [Example 6-52, (S)-3-[(R)-1-(4-Chloro-2-trifluoromethylphenoxy)-2-methylpropyl]pyrrolidine] | ≤ 100 nM | ≤ 100 nM
CC(C)[C@H](Oc1ccccc1[N+](=O)[O-])[C@H]1CCNC1 [Example 6-53, (S)-3-[(S)-2-Methyl-1-(2-nitrophenoxy)propyl]pyrrolidine] | ≤ 10 nM | ≤ 100 nM
CC(C)[C@H](Oc1cccc(F)c1)[C@H]1CCNC1 [Example 6-54, (S)-3-[(S)-1-(3-Fluorophenoxy)-2-methylpropyl]pyrrolidine] | ≤ 10 nM | ≤ 100 nM
CC(C)C(Oc1cccc(F)c1)C1CCNC1 (stereo not drawn) [Example 6-55, 3-[1-(3-Fluorophenoxy)-2-methylpropyl]pyrrolidine] | ≤ 100 nM | ≤ 100 nM
CC(C)C(Oc1cc(Cl)cc(Cl)c1)C1CCNC1 (stereo not drawn) [Example 6-67, 3-[1(3,5-Dichlorophenoxy)-2-methylpropyl]pyrrolidine] | ≤ 100 nM | ≤ 10 nM
CC(C)C(Oc1cccc(C(F)(F)F)c1)C1CCNC1 (stereo not drawn) [Example 6-72, 3-[2-Methyl-1-(3-trifluoromethylphenoxy)-propyl]pyrrolidine] | ≤ 100 nM | ≤ 10 nM
CC(C)C(Oc1ccc(F)cc1)C1CCNC1 (stereo not drawn) [Example 6-73, 3-[1-(4-Fluorophenoxy)-2-methylpropyl]pyrrolidine] | ≤ 100 nM | ≤ 100 nM
CC(C)[C@@H](Oc1ccc(Cl)cc1)[C@H]1CCNC1 [Example 6-76, (S)-3-[(R)-1-(4-Chlorophenoxy)-2-methylpropyl]pyrrolidine] | ≤ 100 nM | ≤ 10 nM
CC(C)C(Oc1ccc(C(F)(F)F)cc1)C1CCNC1 (stereo not drawn) [Example 6-77, 3-[2-Methyl-1-(4-trifluoromethylphenoxy)propyl]pyrrolidine] | ≤ 100 nM | ≤ 10 nM

SMILES | Ki (hNET) | Ki (hSERT)
CCCC[C@@H](Oc1ccc(C(F)(F)F)cc1)[C@H]1CCNC1 [Example 8-5, (S)-3-[(R)-1-(4-Trifluoromethylphenoxy)pentyl]pyrrolidine] | ≤ 100 nM | ≤ 10 nM
CCCC[C@@H](Oc1cccc(Cl)c1Cl)[C@H]1CCNC1 [Example 8-6, (S)-3-[(R)-1-(2,3-Dichlorophenoxy)pentyl]pyrrolidine] | ≤ 10 nM | ≤ 10 nM
CCCC[C@@H](Oc1cccc(Cl)c1C)[C@H]1CCNC1 [Example 8-7, (S)-3-[(R)-1-(3-Chloro-2-methylphenoxy)pentyl]pyrrolidine] | ≤ 10 nM | ≤ 10 nM
CCCC[C@@H](Oc1ccc(Cl)cc1Cl)[C@H]1CCNC1 [Example 8-8, (S)-3-[(R)-1-(2,4-Dichlorophenoxy)pentyl]pyrrolidine] | ≤ 10 nM | ≤ 10 nM
CCCC[C@@H](Oc1ccc(C)cc1Cl)[C@H]1CCNC1 [Example 8-9, (S)-3-[(R)-1-(2-Chloro-4-methylphenoxy)pentyl]pyrrolidine] | ≤ 100 nM | ≤ 10 nM
CCCC[C@@H](Oc1ccc(Cl)cc1C)[C@H]1CCNC1 [Example 8-10, (S)-3-[(R)-1-(4-Chloro-2-methylphenoxy)pentyl]pyrrolidine] | ≤ 10 nM | ≤ 10 nM
CCCC[C@@H](Oc1ccc(Cl)cc1C(F)(F)F)[C@H]1CCNC1 [Example 8-11, (S)-3-[(R)-1-(4-Chloro-2-trifluoromethylphenoxy)pentyl]pyrrolidine] | ≤ 10 nM | ≤ 10 nM
CC(C)CC(Oc1ccccc1F)C1CCNC1 (stereo not drawn) [Example 10-2, 3-[1-(2-Fluorophenoxy)-3-methylbutyl]pyrrolidine] | ≤ 10 nM | ≤ 100 nM
CC(C)CC(Oc1cccc(F)c1)C1CCNC1 (stereo not drawn) [Example 10-6, 3-[1-(3-Fluorophenoxy)-3-methylbutyl]pyrrolidine] | ≤ 10 nM | ≤ 100 nM
CC(C)C[C@H](Oc1ccc(Cl)cc1)[C@@H]1CCNC1 [Example 10-12, (R)-3-[(S)-1-(4-Chlorophenoxy)-3-methylbutyl]pyrrolidine] | ≤ 100 nM | ≤ 10 nM
CC(C)C[C@@H](Oc1ccc(Cl)cc1)[C@@H]1CCNC1 [Example 10-14, (R)-3-[(R)-1-(4-Chlorophenoxy)-3-methylbutyl]pyrrolidine] | ≤ 100 nM | ≤ 10 nM
CC(C)C[C@@H](Oc1ccc(C(F)(F)F)cc1)[C@H]1CCNC1 [Example 10-17, (S)-3-[(R)-3-Methyl-1-(4-trifluoromethylphenoxy)butyl]pyrrolidine] | ≤ 100 nM | ≤ 10 nM
CC(C)C[C@H](Oc1cccc(Cl)c1C(F)(F)F)[C@@H]1CCNC1 [Example 10-37, (R)-3-[(S)-1-(3-Chloro-2-trifluoromethylphenoxy)-3-methylbutyl]pyrrolidine] | ≤ 100 nM | ≤ 10 nM
CC(=O)c1c(F)cccc1O[C@@H](CC(C)C)[C@H]1CCNC1 [Example 10-38, 1-[2-Fluoro-6-((S)-3-methyl-1-(S)-pyrrolidin-3-yl-butoxy)phenyl]ethanone] | ≤ 10 nM | ≤ 100 nM
CC(C)C[C@H](Oc1ccc(Cl)cc1Cl)[C@@H]1CCNC1 [Example 10-43, (R)-3-[(S)-1-(2,4-Dichlorophenoxy)-3-methylbutyl]pyrrolidine] | ≤ 100 nM | ≤ 10 nM
Cc1cc(Cl)ccc1O[C@@H](CC(C)C)[C@@H]1CCNC1 [Example 10-46, (R)-3-[(S)-1-(4-Chloro-2-methylphenoxy)-3-methylbutyl]pyrrolidine] | ≤ 100 nM | ≤ 10 nM
CSc1ccccc1O[C@H](C1CC1)[C@H]1CCNC1 [Example 16-4, (S)-3-[(R)cyclopropyl-(2-methylsulfanylphenoxy)methyl]pyrrolidine] | ≤ 10 nM | ≤ 100 nM
CSc1ccccc1O[C@@H](C1CC1)[C@H]1CCNC1 [Example 16-5, (S)-3-[(S)cyclopropyl-(2-methylsulfanylphenoxy)methyl]pyrrolidine] | ≤ 10 nM | ≤ 100 nM
Clc1cccc(O[C@@H](C2CC2)[C@@H]2CCNC2)c1Cl [Example 16-6, (R)-3-[(S)cyclopropyl-(2,3-dichlorophenoxy)methyl]pyrrolidine] | ≤ 100 nM | ≤ 10 nM
FC(F)(F)c1c(Cl)cccc1O[C@H](C1CC1)[C@H]1CCNC1 [Example 16-17, (S)-3-[(R)-(3-Chloro-2-trifluoromethylphenoxy)cyclopropylmethyl]pyrrolidine] | ≤ 100 nM | ≤ 10 nM
COc1c(Cl)cccc1O[C@@H](C1CC1)[C@H]1CCNC1 [Example 16-18, (S)-3-[(S)-(3-Chloro-2-methoxyphenoxy)cyclopropylmethyl]pyrrolidine] | ≤ 10 nM | ≤ 100 nM
Clc1ccc(O[C@H](C2CC2)[C@H]2CCNC2)c(Cl)c1 [Example 16-20, (S)-3-[(R)cyclopropyl-(2,4-dichlorophenoxy)methyl]pyrrolidine] | ≤ 100 nM | ≤ 10 nM
